Data as given in ChEMBL document CHEMBL5137055, “Near-Infrared Fluorescent Probes as Imaging and Theranostic Modalities for Amyloid-Beta and Tau Aggregates in Alzheimer's Disease” (J Med Chem, 2022).

How the values were obtained:
[1] = Binding affinity to tau protein (unknown origin); set-up: species or system Homo sapiens
[2] = target: T1, Amyloid-beta precursor protein (Homo sapiens, UniProt P05067); experiment: Binding affinity to amyloid beta (1 to 40) (unknown origin) fibrils
[3] = target: T1, Amyloid-beta precursor protein; experiment: Binding affinity to amyloid beta (1 to 40) (unknown origin) aggregates
[4] = target: T1, Amyloid-beta precursor protein; experiment: Binding affinity to human amyloid beta (1 to 42) monomer measured by fluorescence assay
[5] = target: T1, Amyloid-beta precursor protein; experiment: Binding affinity to human amyloid beta (1 to 40) aggregates measured by fluorescence assay
[6] = target: T1, Amyloid-beta precursor protein; experiment: Binding affinity to human amyloid beta (1 to 42) oligomer measured by fluorescence assay
[7] = target: T1, Amyloid-beta precursor protein; experiment: Binding affinity to amyloid beta (1 to 42) (unknown origin) aggregates
[8] = Lipophilicity, logP of compound; assay type: physicochemical; conditions: octanol/water
[9] = Binding affinity to amyloid beta (unknown origin); set-up: species or system Homo sapiens
[10] = Binding affinity to amyloid beta (unknown origin) monomer; set-up: species or system Homo sapiens
[11] = Binding affinity to amyloid beta (unknown origin) aggregates; set-up: species or system Homo sapiens
[12] = target: T1, Amyloid-beta precursor protein; experiment: Binding affinity to human amyloid beta (1 to 40) monomer measured by fluorescence assay
[13] = Inhibition of amyloid beta (unknown origin) self-induced aggregation; set-up: species or system Homo sapiens
[14] = Drug uptake in brain of Tg mouse; assay type: ADME, tissue-based; conditions: Tg, brain, read-out: Drug uptake
[15] = target: T1, Amyloid-beta precursor protein; experiment: Binding affinity to amyloid beta (1 to 42) (unknown origin) fibrils
[16] = target: T1, Amyloid-beta precursor protein; experiment: Displacement of [125I]IMPY from amyloid beta (1 to 42) (unknown origin) measured by competitive radioligand binding assay
[17] = species: Homo sapiens; experiment: Inhibition of amyloid beta (unknown origin) measured by ThT-based fluorimetric assay; conditions: concentration not given here
[18] = target: T1, Amyloid-beta precursor protein; experiment: Binding affinity to amyloid beta (1 to 40) (unknown origin) monomer
[19] = target: T1, Amyloid-beta precursor protein; experiment: Binding affinity to amyloid beta (1 to 40) (unknown origin) oligomer
[20] = target: T1, Amyloid-beta precursor protein; experiment: Binding affinity to human amyloid beta (1 to 42) aggregates measured by fluorescence assay
[21] = target: T1, Amyloid-beta precursor protein; experiment: Binding affinity to amyloid beta (1 to 42) (unknown origin) monomer
[22] = target: T1, Amyloid-beta precursor protein; experiment: Binding affinity to amyloid beta (1 to 42) (unknown origin) oligomer

T1 sequence (P05067 whole entry): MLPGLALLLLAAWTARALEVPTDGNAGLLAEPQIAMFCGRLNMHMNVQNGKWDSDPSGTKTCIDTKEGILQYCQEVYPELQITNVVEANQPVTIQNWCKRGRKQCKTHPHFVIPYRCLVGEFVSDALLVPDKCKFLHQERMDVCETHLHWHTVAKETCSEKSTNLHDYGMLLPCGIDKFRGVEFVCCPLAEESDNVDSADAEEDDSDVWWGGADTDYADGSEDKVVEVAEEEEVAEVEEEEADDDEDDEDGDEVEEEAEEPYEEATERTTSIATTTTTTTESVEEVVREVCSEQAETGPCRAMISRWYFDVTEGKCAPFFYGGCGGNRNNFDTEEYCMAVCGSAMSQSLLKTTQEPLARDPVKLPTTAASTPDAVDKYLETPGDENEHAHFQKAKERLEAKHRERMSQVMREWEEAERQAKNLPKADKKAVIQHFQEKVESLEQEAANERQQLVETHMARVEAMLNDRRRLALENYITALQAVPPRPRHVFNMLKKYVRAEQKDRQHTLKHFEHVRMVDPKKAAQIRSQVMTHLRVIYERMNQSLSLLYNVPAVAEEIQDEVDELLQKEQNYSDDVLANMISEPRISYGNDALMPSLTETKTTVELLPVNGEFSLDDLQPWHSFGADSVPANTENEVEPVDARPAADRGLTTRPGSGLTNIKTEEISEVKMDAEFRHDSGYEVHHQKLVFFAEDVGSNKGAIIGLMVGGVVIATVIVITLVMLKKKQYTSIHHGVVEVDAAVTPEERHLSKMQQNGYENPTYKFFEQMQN

With CCCC[N+]1=C(/C=C/c2ccc(N(CC)CC)cc2)C(C)(C)c2ccccc21 the IC50 [1] was 0.00141 µM, the Kd [2] was 0.93 µM and the Ki [3] was 0.00137 µM.
With CN(C)c1ccc(/C=C/C2=CC(/C=C/c3ccc(N(C)C)cc3)=[O+][B-]3(OC(=O)C(=O)O3)O2)cc1 the Kd [4] was 0.0032 µM, the Kd [5] was 0.0381 µM and the Kd [6] was 0.0038 µM.
For CN(C)c1ccc(/C=C/C=C/C=C2C(=O)OC(C)(C)OC2=O)cc1, the Ki [7] was 0.354 µM.
Compound CC[n+]1c(/C=C/C=C/c2ccc(N(C)C)cc2)sc2ccccc21 has a Kd [1] of 0.126 µM and a Kd [2] of 1.22 µM.
For CC1=CC(C)=[N+]2C1=Cc1ccc(/C=C/c3ccc(-c4ccc([125I])cc4)s3)n1[B-]2(F)F, the Ki [7] was 0.108 µM.
For CN(C)c1ncc(/C=C/c2nc3cc(OCC[18F])ccc3[se]2)cn1, the logP [8] was 1.28 and the Kd [9] was 0.0017 µM.
In the case of COc1cc(/C=C/C(O)=C/C(=O)/C=C/c2ccc(OCCCF)c(OC)c2)ccc1O, the Ki [9] is reported as 0.07 nM.
For CN(C)c1ccc(/C=C/C=C/C=C(C#N)C#N)cc1, the Kd [7] was 0.0269 µM and the Ki [7] was 0.0369 µM.
Work on Cc1cc(/C=C/c2ccc(N(C)C)s2)n2c1C=C1C=CC=[N+]1[B-]2(F)F yielded a Kd [10] of 0.055 µM.
In the case of CN(C)c1ccc(/C=C/c2cnc3ccccc3n2)s1, the Kd [1] is reported as 0.127 µM and the Kd [9] is reported as 0.0252 µM.
COc1ccc(/C=C/c2ccc3n2[B-](F)(F)[N+]2=C(C)C=CC2=C3/C=C/c2ccc(N(C)C)cc2)cc1 gave a Kd [10] of 0.23 µM.
COCCOCCOCCOC(=O)/C(C#N)=C/c1ccc(-c2ccc3cc(N4CCCCC4)ccc3c2)s1 gave a Kd [11] of 0.53 µM.
For Cc1c(/C=C/C2=CC(/C=C/c3cnn(-c4ccccc4)c3C)=[O+][B-](F)(F)O2)cnn1-c1ccccc1, the Kd [12] was 0.0857 µM, the Kd [5] was 0.0524 µM and the Kd [6] was 0.0688 µM.
Work on CN(C)c1ccc(-c2ccc(/C=C/C3=CC(=C(C#N)C#N)c4ccccc4N3CCCS(=O)(=O)O)s2)cc1 yielded a Kd [9] of 0.17 µM.
Work on CCOC(=O)CN1C(=O)S/C(=C\C=C\c2ccc3c(c2)Sc2ccccc2N3C)C1=O yielded an IC50 [13] of 1.8 µM, a logP [8] of 3.6 and a Kd [11] of 0.0103 µM.
Compound COc1cc(N(C)C)cc(OC)c1/C=C/C(=O)/C=C(O)/C=C/c1c(OC)cc(N(C)C)cc1OC has an IC50 [1] of 0.77 µM.
Work on CN(C)c1ccc2cc(/C=C/C=C(C#N)C#N)ccc2c1 yielded a logP [8] of 4.1, a tissue uptake [14] of 1.9 %ID/g and a Kd [11] of 0.0088 µM. It also gave a Ki [11] of 0.0967 µM.
CN(C)c1ccc2nc(/C=C/c3ccc(C=C(C#N)C#N)cc3)sc2c1 gave a Kd [15] of 0.11 µM.
Compound COC(=O)/C(C#N)=C/C=C/C=C/c1ccc(N(C)C)cc1 has a Kd [16] of 0.106 µM.
In the case of O=C(O)c1cc(/N=N/c2ccc(-c3ccc(/N=N/c4ccc(O)c(C(=O)O)c4)cc3)cc2)ccc1O [CHRYSAMINE G], the Ki [9] is reported as 370 nM.
CCOC(=O)CN1C(=O)/C(=C/c2ccc3c(c2)Sc2ccccc2N3C)SC1=S gave an IC50 [13] of 0.67 µM, a logP [8] of 3.68 and a Kd [11] of 0.0075 µM.
CN(CCO)c1ccc2cc(/C=C/C=C/C=C(C#N)C#N)ccc2c1 gave a Kd [16] of 0.0145 µM.
Work on Cc1ccc2nc(/C=C/c3ccc(N)cc3)ccc2c1 yielded an inhibition [17] of 73%.
COCCOCCn1c2ccc(F)cc2c2cc(/C=C/c3cc[n+](CCO)c4ccccc34)ccc21 gave a Kd [18] of 3.22 µM, a Kd [2] of 1.9 µM and a Kd [19] of 0.66 µM.
In the case of CN(C)c1ccc2nc(C=C(C#N)C#N)sc2c1, the Kd [15] is reported as 0.12 µM.
With Cc1cc(/C=C/c2ccc(-c3ccc(N(C)C)cc3)s2)n2c1C=C1C=CC=[N+]1[B-]2(F)F the Kd [10] was 0.027 µM.
Compound Cc1cc(/C=C/c2ccc(N(C)C)cc2)n2c1C=C1C=CC=[N+]1[B-]2(F)F has a Kd [10] of 0.189 µM and a Kd [1] of 0.0441 µM.
In the case of COc1ccc(/C=C/C2=[N+]3C(=C(/C=C/c4ccc(N(C)C)cc4)c4ccc(/C=C/c5ccc(OC)cc5)n4[B-]3(F)F)C=C2)cc1, the Kd [10] is reported as 0.32 µM.
For CCN(CC)c1ccc(/C=C/C2=CC(/C=C/c3ccc(N(CC)CC)nc3)=[O+][B-](F)(F)O2)cn1, the Kd [4] was 0.024 µM, the Kd [20] was 0.027 µM and the Kd [6] was 0.016 µM.
CC(=C(C#N)C#N)c1ccc2cc(N(C)CCF)ccc2c1 showed a Ki [11] of 0.0002 µM.
CCCN(CCC)c1ccc(/C=C/c2cc[n+](OCC)c3ccccc23)cc1 showed a Kd [18] of 6.18 µM, a Kd [2] of 1.13 µM and a Kd [15] of 3.19 µM. It also gave a Kd [21] of 13.1 µM.
Work on COCCOCCn1c2ccccc2c2cc(/C=C/c3cc[n+](C)c4ccccc34)ccc21 yielded a Kd [18] of 96.6 µM, a Kd [2] of 13.1 µM and a Kd [15] of 11.4 µM. The Kd [21] was 40.2 µM.
With C(=C\c1cc(/C=C/c2ccc(N3CCCC3)cc2)ncn1)/c1ccc(N2CCCC2)cc1 the Kd [1] was 0.052 µM and the IC50 [9] was 0.002 µM.
CC1=[N+]2C(=C(/C=C/c3ccc(N(C)C)cc3)c3ccc(C)n3[B-]2(F)F)C=C1 showed a Kd [10] of 0.32 µM.
In the case of CCCCN(CCCC)c1ccc2cc(/C=C/c3c[n+](C)cc4ccccc34)ccc2c1, the Kd [18] is reported as 81 µM, the Kd [2] is reported as 1110 µM and the Kd [22] is reported as 20.8 µM. For the same compound, the Kd [15] was 97.9 µM, the Kd [19] was 36.4 µM and the Kd [21] was 25.3 µM.
In the case of CCO[n+]1ccc(/C=C/c2ccc(N(C)C)cc2)c2ccccc21, the Kd [18] is reported as 13 µM, the Kd [2] is reported as 4.29 µM and the Kd [15] is reported as 7.78 µM. For the same compound, the Kd [21] was 17.6 µM.
